Measured values published in patent US6376175B1, “Methods of discovering chemicals capable of functioning as gene expression modulators” (OSI Pharmaceuticals, Inc., priority 1989, dated 2002).

What was measured:
human G-CSF promoter = format: cell-based; details: Table 2 A) transcriptional activators; G21 cells, 6 hours, high-throughput screen
Text: A human bladder carcinoma cell line (U5637, ATCC number HTB 9) was used for transfection of plasmids containing the human Granulocyte-Colony Stimulating Factor (G-CSF) promoter (see below) and was maintained in RPMI medium supplemented with 10% FCS. For HTP screening, transfected 5637 clones were transferred to a serum free defined medium identical to that used for the NIH/3T3 clones.
The sequences of OL-1, OL-2 and OL-5 recognize the G-CSF promoter region, OL-4 recognizes the first intron/exon junction and OL-3 recognizes sequences within the second exon (32). One of the clones isolated from the leukocyte library using these oligonucleotide probes contains a 3.5 kb SalI-BamHI fragment of G-CSF genomic sequence consisting of 3.3 kb of promoter sequence and two hundred base pairs of the coding region. This fragment was inserted into the vector pGEM-7-Zf (Promega, Madison, Wis.) which had previously been digested with SalI/BamHI, resulting in the vector pJM710 (FIG. 7). pJM710 was then digested with PstI, and the resulting 1.6 kb fragment containing G-CSF upstream sequences and the first 15 bases of the G-CSF leader sequence was inserted into the PstI site of pGEM5-Luci (FIG. 8) to generate pG-Lucl (FIG. 9). This construct was then used for transfection of 5637 human bladder carcinoma cells as described below in section E3. pGEM5-Luci (FIG. 8) had previously been constructed by inserting the […]/SalI fragment from pSVLuci (FIG. 2) containing the luciferase coding sequence and the SV40 late polyadenylation signal into pGEM 5-Zf (Promega, Madison Wis.) digested with XhoI/SalI.
pG-LUC1 (FIG. 9) and pRSVNeo were co-transfected into 5637 human bladder carcinoma cells as described above. Selection of G418 resistant clones was as described above except for using a concentration of 0.1 mg/ml G418. Analysis of cell clones was performed as above except that a known inducer of G-CSF expression (1-5 µg/ml lipopolysaccharide (LPS), E. coli serotype 055:b5, Difco, Detroit, Mich. or Sigma, St. Louis, Mo.) was used in place of dexamethasone.
(§1) Cell plating: Dynatech Microlite 96 well plates were custom pretreated for cell attachment by Dynatech Laboratories, Inc. (Chantilly, Va.). Alternatively, the 96 well plates were treated with 50 µl per well of human fibronectin (hFN, 15 µg/ml in PBS, Collaborative Research, Bedford, Mass.) overnight at 37 C. hFN-treated plates were washed with PBS using an Ultrawash 2 Microplate Washer (Dynatech Labs), to remove excess hFN prior to cell plating. M10, 532, and G21 cells maintained in their respective serum media (with 0.2 mg/ml G418) were washed with PBS, harvested by trypsinization, and counted using a hemocytometer and the Trypan Blue exclusion method according to protocols provided by Sigma, St. Louis, Mo. Chemical Company. Cells were then diluted into serum free defined media (with 0.2 mg/ml G418), and 0.2 ml of cell suspension per well was plated onto Dynatech treated plates (532 and G21) or hFN-treated plates (M10) using a Cetus Pro/Pette (Cetus, Emeryville Calif.). Plates were incubated overnight at 37 C in a humidified 5% CO2 atmosphere.
(§2) Addition of Chemicals to Cells: Chemicals from the Oncogene Science file were dissolved in DMSO at concentrations of 3-30 mg/ml. A liquid handling laboratory work station (RSP 5052, Tecan U.S. Chapel Hill, N.C.) was used to dilute the chemicals (three dilutions; 5 fold, 110 fold, and 726 fold). 10 11 of each dilution were added to each of quadruplicate samples of cells contained in the wells of 96-well Dyantech Microlite Plates. […]

[1] = system: human growth hormone promoter; format: cell-based; details: Table 2 A) transcriptional activators; 532 cells, 6 hours, high-throughput screen
Text: A rat pituitary cell line, designated GC, (4, 25) was used for transfection of plasmids containing the human growth hormone promoter (see below) and was maintained in DMEM and Ham's F12 medium (1:1), supplemented with 12.5% FCS. For HTP screening, transfected GC clones were transferred to serum free defined medium consisting of DMEM and Ham's F12 medium (1:1) supplemented with growth factors, hormones and nutrients as described previously (17, 5).
The SalI-XhoI fragment of pSVLuci (FIG. 2) containing the luciferase coding sequences and the SV40 late polyadenylation site was inserted into pUC 8 (Biorad, Richmond, Calif.), which has been linearized by a SmaI/HinCII digestion and ligated to XhoI linkers (New England Biolabs, Beverly, Mass.). The new plasmid thus generated (pUXLuci; FIG. 4) was linearized by XhoI digestion followed by incubation with the Klenow fragment of E. coli DNA polymerase and the four deoxyribonucleotides to fill in the single-stranded ends of the vector. This linear (5.1 KB) form of pUXLuci was then ligated to the filled-in 550 bP HindIII-XbaI fragment of the plasmid phGH:CAT (FIG. 5) (25). Human growth hormone promoter sequences located on the HindIII-XbaI fragment were thus fused to the luciferase coding sequences located on pUXLuci generating the plasmid phGH-Luci (FIG. 6), which was used in transfections of GC cells as described below (Section E2).
phGH-LUCI (FIG. 6) and pRSVNeo, an antibiotic resistance plasmid (14), were co-transfected into GC rat pituitary cells as described above. Selection of G418-resistant cell clones was described above except for using a concentration of 0.2 mg/ml G418. Analysis of the cell clones was performed as above, except that known inducers of hGH expression (10-100 nM rat growth hormone releasing factor (rGRF, Bachem, Torrance, Calif.) and 10 μm forskolin (Sigma, St. Louis, Mo.) were used in place of dexamethasone. One clone, 532, was selected for further use in the high throughput screen.
as §1
Addition of Chemicals to Cells: Chemicals from the Oncogene Science file were dissolved in DMSO at concentrations of 3-30 mg/ml. A liquid handling laboratory work station (RSP 5052, Tecan U.S. Chapel Hill, N.C.) was used to dilute the chemicals (three dilutions; 5 fold, 110 fold, and 726 fold). 10 11 of each dilution were added to each of quadruplicate samples of cells contained in the wells of 96-well Dyantech Microlite Plates. Cell plates were then shaken on a microplate shaker (Dyantech, medium setting, 30 sec.) and incubated for 6 hours at 37 C, 5% CO2.
Bioluminescence Assay: After incubation with OSI-file chemicals, cell plates were washed 3 times with PBS using an Ultrawash 2 Microplate Washer (Dyantech Labs) and 75 µl of Lysis Buffer 2 were added to each well (Lysis Buffer 2 is the same as Lysis buffer 1 exept that the ATP and DTT concentrations were changed to 2.67 mM and 133 mM, respectively). […]

[2] = system: mouse mammary tumor virus (MMTV) promoter; format: cell-based; details: Table 2 A) transcriptional activators; M10 cells, 6 hours, high-throughput screen
Text: NIH/3T3 fibroblast cells (ATCC number CRL 1658) were used for transfection of plasmids containing the mouse mammary tumor virus (MMTV) promoter linked to firefly luciferase coding sequences (see below). Cells were propagated in Dulbecco's modified Eagle's medium (DMEM) obtained from Gibco, Grand Island, N.Y. and supplemented with 10% FCS. For high-throughput (HTP) screening, transfected NIH/3T3 clones were transferred to serum free defined medium consisting of Iscove's modified Eagle's medium (IMEM) and Ham's F12 medium (1:1) supplemented with growth factors, hormones and nutrients as described previously (43).
The firefly luciferase gene was removed from the plant expression plasmid pDO432 (33) (FIG. 1) as a 1.9 kb BamHI fragment and cloned into the BamHI site of pSVL (Pharmacia, Piscataway, N.J.), a mammalian expression vector containing the SV40 promoter. The resulting plasmid (pSVLuci; FIG. 2) was digested with XhoI and SalI to produce a 2.4 kb fragment containing the luciferase coding sequences and the SV40 late polyadenylation site. This fragment was inserted into the XhoI site of pMSG (Pharmacia, Piscataway, N.J.), a eukaryotic expression vector containing the MMTV promoter. The resulting MMTV promoter-luciferase fusion plasmid (pMLuci; FIG. 3) was used to transfect NIH/3T3 cells as described below (section E1). Similar constructs can be made using luciferase vectors from Clontech (Palo Alto, Calif.).
pMluci (FIG. 3) and pSV2Neo, an antibiotic resistance plasmid (34), were co-transfected into NIH/3T3 mouse fibroblast cells using the calcium phosphate precipitation method (15) with a commercially available kit (Pharmacia, Piscataway N.J.). Two days later, cells were transferred to media containing 0.4 mg/ml G418 and were grown for an additional 10-14 days. G418-resistant clones were isolated by standard methods. Once sufficient cell numbers were obtained, clones were analyzed based on several criteria: constitutive luciferase production, induction of luciferase expression by dexamethasone (1 μm, Sigma, St. Louis, Mo.), satisfactory attachment to microtiter plates used in the high-throughput screen (see Section G) and acceptable standard deviation in multiple luciferase expression assays (see below for assay protocol). This analysis was carried out using the luciferase assay conditions described in sections F and G. Of the clones which satisfied the above criteria for the high throuphput screen, one clone, M10, was selected for use.
as §1, §2

G-CSF promoter = test: G-CSF promoter-luciferase induction by known inducers, clone G 1002 (5637 cells); format: cell-based, human; details: 10.5 hours, serum-containing media; 8.3 ng/ml TNF-alpha, 20 ng/ml PMA, 0.5 ng/ml Interleukin-1 beta, or mixtures as labelled
Text: Cloning of G-CSF sequences is described in Experimental Details, section B-3. In order to correctly fuse the G-CSF upstream sequences to the luciferase start codon, oligonucleotides were synthesized which contain the G-CSF leader sequence from +15 to the ATG (32), and were cloned into pUC19 to create pGUC84 (FIG. 29). […] The G-CSF-oligonucleotide-containing NcoI/ScaI fragment from pGUC84 was then isolated and ligated to the luciferase-containing NcoI/ScaI fragment from pUV100 to create pGUV100 (FIG. 30). Following this, the PstI fragment of the G-CSF promoter was isolated form pJM710 (FIG. 7) and inserted into the PstI site in pGUV100 generating pGUV1(FIG. 31). The rest of the G-CSF promoter clone was added by ligating the G-CSF-luciferase containing SfiI/ScaI fragment from pGUV1 to the appropriate SfiI/ScaI fragment from pJM710, creating the plasmid pGUV2 (FIG. 32). The XbaI fragment from pGUV2 containing the G-CSF-luciferase fusion was then cloned into pUV103 previously digested with XbaI/SpeI, generating pGUV140 (FIG. 33). Finally, a TK-Neo cassette (Section C) was included by ligating the ScaI/XbaI fragment from pGUV140 which contains the G-CSF-luciferase fusion into pTKNEO103 previously digested with ScaI/XbaI, yielding the final vector pGUV150 (FIG. 34).
All the following constructs were transfected into 5637 bladder carcinoma cells either by electroporation using a BRL (Gaithersburg, Md.) Cellporator electroporation device or by lipofection using BRL lipofectin and following the manufacturer's protocol. For electroporation, cells were trypsinized, treated with Soybean trypsin inhibitor (1 mg/ml), washed three times in Dulbecco's modified Eagle's medium (DMEM) without pH indicator, and 1 ml of cell suspension in DMEM was electroporated at room temperature and at a cell density of 5 million cells per ml at a voltage of 250 V and a capacitance of 1180 microFarad with the electroporation device set at low resistance. In previous experiments these parameters had been determined to result in optimal electroporation efficiency. About 15 min after electroporation cells were recovered from the disposable electroporation containers (BRL, Gaithersburg, Md.) and plated in RPMI containing 10% fetal calf serum. 2 days after electroporation 0.4 mg/ml G 418 were added and clonal cell colonies were picked 14-20 days after transfection. Clones were first analysed for luciferase expression using Lysis Buffer 1 without bovine serum albumin (see Section F) and those testing positive expanded further and frozen in liquid nitrogen. Further analysis of 6 clones (G 1002, G 2005, G 2071, G 2085, G 3014, G3031) included Southern blotting, reaction to known inducers, satisfactory attachment to microtiter plates and acceptable standard deviation in multiple luciferase expression assays. Clones G 2005 and G 2085 were derived from 5637 cells lipofected with 100 ug/ml of linearized pGVU150 (FIG. 34), G 3031 descends from cells electroporated with 100 ug/ml of linearized pGVU150, whereas 200 ug/ml of the same plasmid were used to generate G 3014. Cotransfection of circular pGVU140 (FIG. 33) with circular pTKNeo3 (FIG. 19) was used to generate clones G 1002 and G 2071. While G 1002 resulted from co-electroporation of 50 and 5 ug/ml of the two plasmids, G 2071 descends from cells lipofected with 100 and 10 ug.
Cell clones with correctly integrated promoter/reporter constructs were analysed for correct reaction to known transcriptional inducers. […] Both TNF-alpha- and PMA-induction levels of clone G 1002 were influenced by the presence or absence of epidermal growth factor (EGF). […] The 9.3fold induction by PMA in the absence of EGF was reduced to 5.6fold by including EGF in the serum-free incubation mixture. Similar differences were observed, when EGF was substituted by 10% fetal calf serum.

Row | Molecule | GCSF fold induction relative to solvent control (human G-CSF promoter) [fold] | hGH fold induction relative to solvent control [1] [fold] | MMTV fold induction relative to solvent control [2] [fold] | G-CSF promoter induction, clone G 1002 (G-CSF promoter) [fold]
1 | CC(=O)[O-].Nc1ccc2nc3c(cc(N)c4ccccc43)[o+]c2c1 [Chemical 1776] | 3.50 | 0.15 | 1.36 | –
2 | Interleukin-1 beta: Interleukin-1 beta, known transcriptional inducer | – | – | – | 2.6
